Like-named read-outs stand apart in the source and are kept apart here. Where a SMILES comes first, the peptide text is derived from it. Side-chain parts run from the residue outwards. The star is where a group is joined. Nicotinoyl = O=C(c1cccnc1)*; Cbz = O=C(OCc1ccccc1)*
Target: T1, human AT2 receptor (Homo sapiens, UniProt P50052)
T1 construct: membranes prepared in house
T1 sequence (P50052 1-363): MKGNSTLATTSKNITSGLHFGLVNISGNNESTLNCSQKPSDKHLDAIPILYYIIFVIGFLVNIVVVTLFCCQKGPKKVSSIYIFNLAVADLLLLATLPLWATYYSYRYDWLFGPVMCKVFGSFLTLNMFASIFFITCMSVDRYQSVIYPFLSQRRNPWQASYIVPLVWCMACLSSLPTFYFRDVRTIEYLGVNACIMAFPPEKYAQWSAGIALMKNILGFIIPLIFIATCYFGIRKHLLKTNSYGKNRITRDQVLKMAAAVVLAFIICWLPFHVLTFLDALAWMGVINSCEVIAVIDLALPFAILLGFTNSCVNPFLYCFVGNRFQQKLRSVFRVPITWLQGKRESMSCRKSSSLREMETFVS
Test: AT2 receptor binding ([125I]CGP 42112A displacement, CHO-K1 membranes)
Source text: Reagents were purchased from Sigma-Aldrich, unless otherwise specified. Dialyzed fetal bovine serum (FBS) was from Life Technologies (cat. no. 10073772). Valiscreen® human angiotensin AT2 receptor cell line (cat. no. ES-070-C), [^125I]CGP 42112A (cat. no. NEX324025UC) and MicroScint™ 40 (cat. no. 6013641) were purchased from PerkinElmer. CGP 42112A (cat. no. 2569) and PD 123,319 ditrifluoroacetate (cat. no. 1361) were from Tocris Biosciences.
• 1. Growth medium • EX-CELL® CHO DHFR^− medium • 10% FBS, dialysed • 1 mM sodium pyruvate • 2 mM L-glutamine • 2. Harvesting buffer • PBS • 2 mM EDTA • 3. Suspension buffer • 50 mM Tris-HCl, pH 7.4 • 10 mM EDTA • 4. Resuspension buffer • 50 mM Tris-HCl, pH 7.4 • 0.1 mM EDTA • 0.1% sucrose • 5. Binding assay buffer • 50 mM Tris-HCl, pH 7.4 • 5 mM MgCl2 • 1 mM EDTA • 0.1% gelatin • 6. Wash buffer • 50 mM Tris-HCl, pH 7.4 Procedure for Membrane Preparation • Valiscreen® CHO-K1 cells stably expressing the human AT2 receptor were cultured in growth medium. • Cells were seeded into T-175 flasks and grown to 70-80% confluence. • Medium was removed from confluent flasks and cells were washed with warm PBS. • Cells were harvested by incubating with harvesting buffer for 10 min at 37° C., and then transferred to a centrifuge tube on ice. • Cells were centrifuged at 200 g for 5 min at 4° C. • Cell pellets were homogenised in ice-cold suspension buffer. • Homogenates were centrifuged at 40,000 g for 15 min at 4° C. • Pellets were resuspended in ice-cold resuspension buffer and centrifuged at 40,000 g for 15 min at 4° C. • Final pellets were homogenised in ice-cold resuspension buffer. • Protein concentrations were determined by BCA assay method with BSA as standard. Compound Preparation
Compounds were prepared from 10 mM stock solutions in 100% DMSO. Dilutions were made using electronic multichannel pipettes.
• Compounds dilutions were prepared in 100% DMSO at 100× final assay concentration. • Compounds were diluted in 100% DMSO to the appropriate maximal concentration. • 30 μL compound was added to row A. • 21.6 μL of 100% DMSO was added to rows B-H. • Transfer 10 μL from row A into row B (half log dilution). • Transfer 10 μL from row B into row C (half log dilution). • Transfer 10 μL from row C into row D (half log dilution). • Transfer 10 μL from row D into row E (half log dilution). • Transfer 10 μL from row E into row F (half log dilution). • Transfer 10 μL from row F into row G (half log dilution). • Transfer 10 μL from row G into row H (half log dilution). Working Plate Preparation (96-Well Plate) • Compounds were diluted 10-fold in assay buffer. • 10 μL compound solution from dose plate was transferred to corresponding well of working plate. • 90 μL assay buffer was added to the wells of working plate. • Working solutions contained 10% DMSO in assay buffer (1% DMSO final assay concentration). Controls • Total binding (high control) was determined in the absence of unlabelled ligand. A solution of 10% DMSO in assay buffer was prepared. • Non-specific binding (low control) was determined in the presence of a vast excess (10 μM) of PD 123,319. 1 mM stock solution of PD 123,319 in water was diluted 10-fold with 10% DMSO in assay buffer. Assay Plate Preparation (96-Well Plate)
15 μL compound solution was transferred to duplicate wells of assay plate. 5 compounds were tested per plate. 15 μL control solutions were transferred to columns 1 and 12 of assay plate.

[1] = [125I]CGP 42112A 0.05 nM, membranes of CHO-K1 cells expressing human AT2 receptor, Ki from IC50 by Cheng-Prussoff equation, read-out: Ki

| Structure (SMILES) | Ki [1] [nM] | Ki (standard compounds, mean±S.E.M., read-out: Dissociation constants (pKi) (converted)) [nM] |
| --- | --- | --- |
| O=C(O)[C@@H]1C[C@H](N2CCCCc3ccc(F)cc32)CN1C(=O)C(c1ccccc1)c1ccccc1 [Compound 2, (2S,4S)-1-(2,2-Diphenylacetyl)-4-(8-fluoro-2,3,4,5-tetrahydro-1H-benzo[b]azepin-1-yl)pyrrolidine-2-carboxylic acid] | 4.7 |  |
| O=C(O)[C@@H]1C[C@H](N2CCCc3ccccc32)CN1C(=O)C(c1ccccc1)c1ccccc1 [Compound 14, (2S,4S)-4-(3,4-Dihydroquinolin-1(2H)-yl)-1-(2,2-diphenylacetyl)pyrrolidine-2-carboxylic acid] | 23.8 |  |
| CC[C@H](C)[C@H](NC(=O)[C@@H]1CCCN1C(=O)[C@H](Cc1c[nH]cn1)NC(=O)[C@H](CCCCNC(=O)[C@H](CCCN=C(N)N)NC(=O)OCc1ccccc1)NC(=O)[C@H](Cc1ccc(O)cc1)NC(=O)c1cccnc1)C(=O)O [CGP 42112A, reference compound] (Nicotinoyl-YK([Arg-Cbz])HPI-OH) |  | 0.178 |
| NC(=O)[C@@H]1C[C@H](N2CCCCc3ccccc32)CN1C(=O)C(c1ccccc1)c1ccccc1 [Compound 15, (2S,4S)-1-(2,2-Diphenylacetyl)-4-(2,3,4,5-tetrahydro-1H-benzo[b]azepin-1-yl)pyrrolidine-2-carboxamide] | 66.8 |  |
| CN1CCN([C@H]2C[C@@H](C(=O)O)N(C(=O)C(c3ccccc3)c3ccccc3)C2)Cc2ccccc21 [Compound 17, (2S,4S)-1-(2,2-Diphenylacetyl)-4-(1-methyl-1,2,3,5-tetrahydro-4H-benzo[e][1,4]diazepin-4-yl)pyrrolidine-2-carboxylic acid] | 178 |  |
| COc1ccc2c(c1)CCCCN2[C@H]1C[C@@H](C(=O)O)N(C(=O)C(c2ccccc2)c2ccccc2)C1 [Compound 4, (2S,4S)-1-(2,2-Diphenylacetyl)-4-(7-methoxy-2,3,4,5-tetrahydro-1H-benzo[b]azepin-1-yl)pyrrolidine-2-carboxylic acid] | 8.8 |  |
| O=C(O)[C@@H]1C[C@H](N2CCCCc3cc(F)ccc32)CN1C(=O)C(c1ccccc1)c1ccccc1 [Compound 5, (2S,4S)-1-(2,2-Diphenylacetyl)-4-(7-fluoro-2,3,4,5-tetrahydro-1H-benzo[b]azepin-1-yl)pyrrolidine-2-carboxylic acid] | 9.8 |  |
| O=C(O)[C@@H]1C[C@H](N2CCc3ccccc32)CN1C(=O)C(c1ccccc1)c1ccccc1 [Compound 29, (2S,4S)-1-(2,2-Diphenylacetyl)-4-(indolin-1-yl)pyrrolidine-2-carboxylic acid] | 225 |  |
| O=C(O)[C@@H]1C[C@H](N2CCCCc3cc(F)c(F)cc32)CN1C(=O)C(c1ccccc1)c1ccccc1 [Compound 27, (2S,4S)-4-(7,8-Difluoro-2,3,4,5-tetrahydro-1H-benzo[b]azepin-1-yl)-1-(2,2-diphenylacetyl)pyrrolidine-2-carboxylic acid] | 2.8 |  |
| O=C(O)[C@@H]1C[C@H](N2CCCCCc3ccccc32)CN1C(=O)C(c1ccccc1)c1ccccc1 [Compound 13, (2S,4S)-1-(2,2-Diphenylacetyl)-4-(3,4,5,6-tetrahydrobenzo[b]azocin-1(2H)-yl)pyrrolidine-2-carboxylic acid] | 8.7 |  |
| O=C(O)[C@@H]1C[C@H](N2CCCOc3cc(F)c(F)cc32)CN1C(=O)C(c1ccccc1)c1ccccc1 [Compound 21, (2S,4S)-4-(7,8-difluoro-3,4-dihydrobenzo[b][1,4]oxazepin-5(2H)-yl)-1-(2,2-diphenylacetyl)pyrrolidine-2-carboxylic acid] | 2.3 |  |
| O=C(O)[C@@H]1C[C@@H](N2CCCCc3ccccc32)CN1C(=O)C(c1ccccc1)c1ccccc1 [Compound 22, (2S,4R)-1-(2,2-diphenylacetyl)-4-(2,3,4,5-tetrahydro-1H-benzo[b]azepin-1-yl)pyrrolidine-2-carboxylic acid] | 9.8 |  |
| O=C(O)[C@@H]1C[C@H](N2CCCc3ccccc3C2)CN1C(=O)C(c1ccccc1)c1ccccc1 [Compound 18, (2S,4S)-1-(2,2-Diphenylacetyl)-4-(1,3,4,5-tetrahydro-2H-benzo[c]azepin-2-yl)pyrrolidine-2-carboxylic acid] | 79.7 |  |
| O=C(O)[C@@H]1C[C@H](N2CCCCc3cccnc32)CN1C(=O)C(c1ccccc1)c1ccccc1 [Compound 12, (2S,4S)-1-(2,2-Diphenylacetyl)-4-(5,6,7,8-tetrahydro-9H-pyrido[2,3-b]azepin-9-yl)pyrrolidine-2-carboxylic acid] | 81 |  |

Continued, values first:

| Ki [1] [nM] | Ki (standard compounds, mean±S.E.M., read-out: Dissociation constants (pKi) (converted)) [nM] | Structure (SMILES) |
| --- | --- | --- |
| 7 |  | C[C@@]1(C(=O)O)C[C@H](N2CCCOc3cc(F)ccc32)CN1C(=O)C(c1ccccc1)c1ccccc1 [Compound 33, (2S,4S)-1-(2,2-Diphenylacetyl)-4-(8-fluoro-3,4-dihydrobenzo[b][1,4]oxazepin-5(2H)-yl)-2-methylpyrrolidine-2-carboxylic acid] |
| 11 |  | C[C@@]1(C(=O)NS(=O)(=O)C2CC2)C[C@H](N2CCCOc3cc(F)c(F)cc32)CN1C(=O)C(c1ccccc1)c1ccccc1 [Compound 42b, (2S,4S)—N-(cyclopropylsulfonyl)-4-(7,8-difluoro-3,4-dihydrobenzo[b][1,4]oxazepin-5(2H)-yl)-1-(2,2-diphenylacetyl)-2-methylpyrrolidine-2-carboxamide] |
| 16.9 |  | CN(C)S(=O)(=O)NC(=O)[C@@H]1C[C@H](N2CCCCc3ccccc32)CN1C(=O)C(c1ccccc1)c1ccccc1 [Compound 44, (2S,4S)—N—(N,N-Dimethylsulfamoyl)-1-(2,2-diphenylacetyl)-4-(2,3,4,5-tetrahydro-1H-benzo[b]azepin-1-yl)pyrrolidine-2-carboxamide] |
| 3.3 |  | C[C@@]1(C(=O)O)C[C@H](N2CCCCc3ccccc32)CN1C(=O)C(c1ccccc1)c1ccccc1 [Compound 30, (2S,4S)-1-(2,2-Diphenylacetyl)-2-methyl-4-(2,3,4,5-tetrahydro-1H-benzo[b]azepin-1-yl)pyrrolidine-2-carboxylic acid] |
| 15.1 |  | O=C(NS(=O)(=O)C1CC1)[C@@H]1C[C@H](N2CCCCc3cc(F)c(F)cc32)CN1C(=O)C(c1ccccc1)c1ccccc1 [Compound 41, (2S,4S)—N-(Cyclopropylsulfonyl)-4-(7,8-difluoro-2,3,4,5-tetrahydro-1H-benzo[b]azepin-1-yl)-1-(2,2-diphenylacetyl)pyrrolidine-2-carboxamide] |
| 9.3 |  | CN(C)S(=O)(=O)NC(=O)[C@@H]1C[C@H](N2CCCCc3cc(F)c(F)cc32)CN1C(=O)C(c1ccccc1)c1ccccc1 [Compound 40, (2S,4S)-4-(7,8-Difluoro-2,3,4,5-tetrahydro-1H-benzo[b]azepin-1-yl)-N—(N,N-dimethylsulfamoyl)-1-(2,2-diphenylacetyl)pyrrolidine-2-carboxamide] |
| 10 |  | O=C(O)[C@@H]1C[C@H](N2CCCS(=O)(=O)c3ccccc32)CN1C(=O)C(c1ccccc1)c1ccccc1 [Compound 34, (2S,4S)-4-(1,1-Dioxido-3,4-dihydrobenzo[b][1,4]thiazepin-5(2H)-yl)-1-(2,2-diphenylacetyl)pyrrolidine-2-carboxylic acid] |

— patent US10065943B2, “Pyrrolidine derivatives as angiotensin II type 2 antagonists” (NOVARTIS AG, priority 2015, dated 2018)
